Assay results from US10314308B2, “Microbiocidal benzoxaboroles” (SYNGENTA PARTICIPATIONS AG, priority 2015, dated 2019).

Columns and labels:
[1] = system: Puccinia Recondita f. sp. Tritici; assay: Puccinia recondita f. sp. tritici / wheat / leaf disc preventative (brown rust); assay type: in vivo; settings: foliar, wheat leaf segments cv Kanzler, inoculated 1 day after application, assessed 7-9 days after application, read-out: disease control
Description: 3 Puccinia Recondita f. sp. Tritici/Wheat/Leaf Disc Preventative (Brown Rust) Wheat leaf segments cultivated variety (cv) Kanzler were placed on agar in 24-well plates and sprayed with formulated test compound diluted in water. The leaf disks were inoculated with a spore suspension of the fungus 1 day after application. The inoculated leaf segments were incubated at 19° C. and 75% relative humidity under a light regime of 12/12 h (light/dark) in a climate cabinet and the activity of a compound was assessed as percent disease control compared to untreated when an appropriate level of disease damage appears in untreated check leaf segments (7-9 days after application).

Pythium Ultimum = assay: Pythium ultimum / liquid culture (seedling damping off); assay type: cell-based; settings: Globisporangium ultimum, potato dextrose broth, 24° C., 2-3 days after application, read-out: disease control (inhibition of growth, photometrically)
[2] = system: Glomerella Lagenarium(Colletotrichum Ladenarium); assay: Glomerella lagenarium (Colletotrichum lagenarium) / liquid culture (anthracnose); assay type: cell-based; settings: PDB potato dextrose broth, 24° C., 3-4 days after application, read-out: disease control (inhibition of growth, photometrically)
Description: (§1) 10 Glomerella Lagenarium(Colletotrichum Ladenarium)/Liquid Culture (Anthracnose) Conidia of the fungus from cryogenic storage were directly mixed into nutrient broth (PDB potato dextrose broth). After placing a DMSO solution of test compound into a 96-well microtiter plate, the nutrient broth containing the fungal spores was added. The test plates were incubated at 24° C. and the inhibition of growth was measured photometrically 3-4 days after application.

[3] = system: Mycosphaerella Graminicola(Septoria Tritici); assay: Mycosphaerella graminicola (Septoria tritici) / liquid culture (Septoria blotch); assay type: cell-based; settings: Zymoseptoria tritici, PDB potato dextrose broth, 24° C., 4-5 days after application, read-out: disease control (inhibition of growth, photometrically)
Description: as §1, with “12 Mycosphaerella Graminicola(Septoria Tritici)/Liquid” for “10 Glomerella Lagenarium(Colletotrichum Ladenarium)/Liquid”, “(Septoria Blotch)” for “(Anthracnose)”, “determined” for “measured”, “4-5” for “3-4”

[4] = system: Botryotinia Fuckeliana(Botrytis Cinerea); assay: Botryotinia fuckeliana (Botrytis cinerea) / liquid culture (gray mould); assay type: cell-based; settings: Vogels broth, 24° C., 3-4 days after application, read-out: disease control (inhibition of growth, photometrically)
Description: as §1, with “9 Botryotinia Fuckeliana(Botrytis Cinerea)/Liquid” for “10 Glomerella Lagenarium(Colletotrichum Ladenarium)/Liquid”, “(Gray Mould)” for “(Anthracnose)”, “(Vogels” for “(PDB potato dextrose”, “determined” for “measured”

[5] = system: Mycosphaerella Arachidis(Cercospora Arachidicola); assay: Mycosphaerella arachidis (Cercospora arachidicola) / liquid culture (early leaf spot); assay type: cell-based; settings: PDB potato dextrose broth, 24° C., 4-5 days after application, read-out: disease control (inhibition of growth, photometrically)
Description: as §1, with “11 Mycosphaerella Arachidis(Cercospora Arachidicola)/Liquid” for “10 Glomerella Lagenarium(Colletotrichum Ladenarium)/Liquid”, “(Early Leaf Spot)” for “(Anthracnose)”, “determined” for “measured”, “4-5” for “3-4”

Gaeumannomyces Graminis = assay: Gaeumannomyces graminis / liquid culture (take-all of cereals); assay type: cell-based; settings: PDB potato dextrose broth, 24° C., 4-5 days after application, read-out: disease control (inhibition of growth, photometrically)
Description: (§2) 13 Gaeumannomyces Graminis/Liquid Culture (Take-all of Cereals) Mycelial fragments of the fungus from cryogenic storage were directly mixed into nutrient broth (PDB potato dextrose broth). After placing a DMSO solution of test compound into a 96-well microtiter plate, the nutrient broth containing the fungal spores is added. The test plates were incubated at 24° C. and the inhibition of growth was determined photometrically 4-5 days after application.

[6] = system: Monographella Nivalis(Microdochium Nivale); assay: Monographella nivalis (Microdochium nivale) / liquid culture (foot rot cereals); assay type: cell-based; settings: PDB potato dextrose broth, 24° C., 4-5 days after application, read-out: disease control (inhibition of growth, photometrically)
Description: as §2, with “14 Monographella Nivalis(Microdochium Nivale)/Liquid” for “13 Gaeumannomyces Graminis/Liquid”, “(Foot Rot” for “(Take-all of”, “Conidia” for “Mycelial fragments”, “was” for “is”

Fusarium Culmorum = assay: microbe, parasite or virus in culture; assay type: cell-based; settings: read-out: disease control (inhibition of growth, photometrically)
[7] = system: Thanatephorus Cucumeris(Rhizoctonia Solani); assay: Thanatephorus cucumeris (Rhizoctonia solani) / liquid culture (foot rot, damping-off); assay type: cell-based; settings: PDB potato dextrose broth, 24° C., 3-4 days after application, read-out: disease control (inhibition of growth, photometrically)
Description: 16 Thanatephorus Cucumeris(Rhizoctonia Solani)/Liquid Culture (Foot Rot, Damping-Off) Mycelia fragments of a newly grown liquid culture of the fungus were directly mixed into nutrient broth (PDB potato dextrose broth). After placing a DMSO solution of the test compounds into a 96-well microtiter plate at an application rate of 200 ppm, the nutrient broth containing the fungal material was added. The test plates were incubated at 24° C. and the inhibition of growth was determined photometrically 3-4 days after application.

Sclerotinia Sclerotiorum = assay: Sclerotinia sclerotiorum / liquid culture (cottony rot); assay type: cell-based; settings: PDB potato dextrose broth, 24° C., 3-4 days after application, read-out: disease control (inhibition of growth, visually)
Description: 17 Sclerotinia Sclerotiorum/Liquid Culture (Cottony Rot) Mycelia fragments of a newly grown liquid culture of the fungus were directly mixed into nutrient broth (PDB potato dextrose broth). After placing a (DMSO) solution of the test compounds into a microtiter plate (96-well format) the nutrient broth containing the fungal material was added. The test plates were incubated at 24° C. and the inhibition of growth was determined visually 3-4 days after application.

Plasmopara Viticola = assay: whole plant or invertebrate; assay type: in vivo; settings: foliar, read-out: disease control
[8] = system: Phaeosphaeria Nodorum (Septoria Nodorum); assay: Phaeosphaeria nodorum (Septoria nodorum) / wheat / leaf disc preventative (glume blotch); assay type: in vivo; settings: Parastagonospora nodorum, foliar, wheat leaf segments cv Kanzler, inoculated 2 days after application, assessed 5-7 days after application, read-out: disease control
Description: 5 Phaeosphaeria Nodorum (Septoria Nodorum)/Wheat/Leaf Disc Preventative (Glume Blotch) Wheat leaf segments cv Kanzler were placed on agar in a 24-well plate and sprayed with formulated test compound diluted in water. The leaf disks were inoculated with a spore suspension of the fungus 2 days after application. The inoculated test leaf disks were incubated at 20° C. and 75% relative humidity under a light regime of 12/12 h (light/dark) in a climate cabinet and the activity of a compound was assessed as percent disease control compared to untreated when an appropriate level of disease damage appears in untreated check leaf disks (5-7 days after application).

Row | Compound | pest or weed control at 200 ppm [1] | inhibition at 20 ppm (Pythium Ultimum) | inhibition at 20 ppm [2] | inhibition at 20 ppm [3] | melting point | inhibition at 20 ppm [4] | inhibition at 20 ppm [5] | inhibition at 20 ppm (Gaeumannomyces Graminis) | inhibition at 20 ppm [6] | inhibition at 20 ppm (Fusarium Culmorum) | inhibition at 20 ppm [7] | inhibition at 20 ppm (Sclerotinia Sclerotiorum) | pest or weed control at 200 ppm (Plasmopara Viticola) | pest or weed control at 200 ppm [8]
1 | CO/N=C/c1ccc(-c2cc3c(cc2F)COB3O)o1 [Compound 28] | ≥ 80% | ≥ 80% | ≥ 80% | ≥ 80% | 125 to 140 °C |  |  |  |  |  |  |  |  | 
2 | OB1OCc2cc(Cl)c(-c3ncon3)cc21 [Compound 96] | ≥ 80% | ≥ 80% | ≥ 80% | ≥ 80% | 180 to 203 °C | ≥ 80% | ≥ 80% | ≥ 80% | ≥ 80% | ≥ 80% | ≥ 80% | ≥ 80% |  | 
3 | Cc1nc(C)c(-c2cc3c(cc2Cl)COB3O)s1 [Compound 1] | ≥ 80% | ≥ 80% |  | ≥ 80% | 155 to 160 °C |  |  | ≥ 80% | ≥ 80% | ≥ 80% |  |  | ≥ 80% | 
4 | Cc1cc(-c2cc3c(cc2Cl)COB3O)c(C)s1 [Compound 90] | ≥ 80% | ≥ 80% | ≥ 80% | ≥ 80% |  |  | ≥ 80% | ≥ 80% | ≥ 80% |  | ≥ 80% |  |  | 
5 | OB1OCc2ccc(-c3ncon3)cc21 [Compound 92] | ≥ 80% | ≥ 80% | ≥ 80% | ≥ 80% | 209 to 211 °C | ≥ 80% | ≥ 80% | ≥ 80% | ≥ 80% | ≥ 80% | ≥ 80% | ≥ 80% |  | 
6 | OB1OCc2cc(Cl)c(-c3cncs3)cc21 [Compound 25] |  | ≥ 80% | ≥ 80% | ≥ 80% |  | ≥ 80% | ≥ 80% | ≥ 80% | ≥ 80% | ≥ 80% | ≥ 80% | ≥ 80% | ≥ 80% | ≥ 80%
7 | OB1OCc2cc(F)c(-c3ccsc3)cc21 [Compound 12, 5-fluoro-1-hydroxy-6-(3-thienyl)-3H-2,1-benzoxaborole] | ≥ 80% | ≥ 80% |  | ≥ 80% |  | ≥ 80% | ≥ 80% | ≥ 80% | ≥ 80% | ≥ 80% | ≥ 80% | ≥ 80% | ≥ 80% | 
8 | OB1OCc2cc(F)c(-c3cccs3)cc21 [Compound 6] | ≥ 80% | ≥ 80% | ≥ 80% | ≥ 80% | 134 to 140 °C | ≥ 80% | ≥ 80% | ≥ 80% | ≥ 80% | ≥ 80% | ≥ 80% | ≥ 80% | ≥ 80% | 
9 | Cc1cscc1-c1cc2c(cc1F)COB2O [Compound 50] |  | ≥ 80% | ≥ 80% | ≥ 80% |  | ≥ 80% | ≥ 80% | ≥ 80% | ≥ 80% | ≥ 80% | ≥ 80% | ≥ 80% | ≥ 80% | ≥ 80%
10 | Cc1ccc(-c2cc3c(cc2Cl)COB3O)s1 [Compound 38] | ≥ 80% | ≥ 80% | ≥ 80% | ≥ 80% |  | ≥ 80% | ≥ 80% | ≥ 80% | ≥ 80% | ≥ 80% | ≥ 80% | ≥ 80% | ≥ 80% | 
11 | OB1OCc2cc(Cl)c(-c3ccco3)cc21 [Compound 2, 5-chloro-6-(2-furyl)-1-hydroxy-3H-2,1-benzoxaborole] |  | ≥ 80% | ≥ 80% | ≥ 80% | 142 to 147 °C | ≥ 80% | ≥ 80% |  | ≥ 80% | ≥ 80% | ≥ 80% | ≥ 80% | ≥ 80% | ≥ 80%
12 | Cc1cc(-c2cc3c(cc2Cl)COB3O)c(C#N)o1 [Compound 66] | ≥ 80% | ≥ 80% |  |  |  |  |  | ≥ 80% |  |  |  |  | ≥ 80% | 
13 | OB1OCc2ccc(-c3ncno3)cc21 [Compound 49] |  | ≥ 80% | ≥ 80% | ≥ 80% | 179 to 180 °C | ≥ 80% | ≥ 80% | ≥ 80% | ≥ 80% | ≥ 80% | ≥ 80% | ≥ 80% | ≥ 80% | ≥ 80%
14 | COc1nccc(-c2cc3c(cc2Cl)COB3O)c1Cl [Compound 73] | ≥ 80% | ≥ 80% | ≥ 80% | ≥ 80% |  | ≥ 80% | ≥ 80% | ≥ 80% | ≥ 80% | ≥ 80% | ≥ 80% | ≥ 80% | ≥ 80% | 
